{"source": "patent US7605227B2", "about": "“Melanoma antigen peptide analogues” (MannKind Corporation, priority 2005, dated 2009)", "note": "Entries after “also recorded” stand apart in the source; their conditions may differ. Square brackets hold non-standard residues; d marks the D form. Ends that are not written are not given here. Peptide text beside a SMILES is read from it. Phe(4-F) = N[C@@H](Cc1ccc(F)cc1)C(=O)O"}
{"test_system": "T cell lines against a natural (non-mutated) epitope (SSX-241-49)", "test": "Cross-reactivity and functional avidity: IFN-gamma from T cell lines against natural SSX-2 41-49 epitope;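 also: peptide analogs tested ex vivo with competent APCs, IFN-gamma in supernatant measured by ELISA, readouts include minimal triggering concentration, peak effect and concentration at peak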", "format": "cell-based, HHD transgenic mice", "settings": "IFN-gamma from T cell line raised against native SSX-2 41-49; native = 1, lower = more active"}
{"compound": "CC[C@H](NC(=O)[C@@H](N)CCCCN)C(=O)N[C@@H](CO)C(=O)N[C@@H](CCC(=O)O)C(=O)N[C@@H](CCCCN)C(=O)N[C@H](C(=O)N[C@@H](Cc1ccccc1)C(=O)N[C@@H](Cc1ccc(O)cc1)C(=O)N[C@H](C(=O)O)C(C)C)[C@@H](C)CC", "note": "[SSX2 41-49 (A42(Abu)), KAbuSEKIFYV]", "Cross-reactivity and fct avidity (native to analogs)*": 0.3}
{"compound": "CC[C@H](C)[C@H](NC(=O)[C@H](CCCCN)NC(=O)[C@H](CCC(=O)O)NC(=O)[C@H](CO)NC(=O)C(C)(C)NC(=O)[C@@H](N)CCCCN)C(=O)N[C@@H](Cc1ccccc1)C(=O)N[C@@H](Cc1ccc(O)cc1)C(=O)N[C@H](C(=O)O)C(C)C", "note": "[SSX2 41-49 (A42(Aib)), KAibSEKIFYV]", "Cross-reactivity and fct avidity (native to analogs)*": 3}
{"compound": "CC[C@H](C)[C@H](NC(=O)[C@H](CCCCN)NC(=O)[C@H](CCC(=O)O)NC(=O)[C@H](CO)NC(=O)[C@H](Cc1ccc2ccccc2c1)NC(=O)[C@@H](N)CCCCN)C(=O)N[C@@H](Cc1ccccc1)C(=O)N[C@@H](Cc1ccc(O)cc1)C(=O)N[C@H](C(=O)O)C(C)C", "note": "[SSX2 41-49 (A42(Nal-2)), KNal-2SEKIFYV]", "Cross-reactivity and fct avidity (native to analogs)*": 3}
{"compound": "CCCC[C@H](NC(=O)[C@@H](N)CCCCN)C(=O)N[C@@H](CO)C(=O)N[C@@H](CCC(=O)O)C(=O)N[C@@H](CCCCN)C(=O)N[C@H](C(=O)N[C@@H](Cc1ccccc1)C(=O)N[C@@H](Cc1ccc(O)cc1)C(=O)N[C@H](C(=O)O)C(C)C)[C@@H](C)CC", "note": "[SSX2 41-49 (A42(Nle)), KNleSEKIFYV]", "Cross-reactivity and fct avidity (native to analogs)*": 0.1}
{"compound": "CCC[C@H](NC(=O)[C@@H](N)CCCCN)C(=O)N[C@@H](CO)C(=O)N[C@@H](CCC(=O)O)C(=O)N[C@@H](CCCCN)C(=O)N[C@H](C(=O)N[C@@H](Cc1ccccc1)C(=O)N[C@@H](Cc1ccc(O)cc1)C(=O)N[C@H](C(=O)O)C(C)C)[C@@H](C)CC", "note": "[SSX2 41-49 (A42(Nva)), KNvaSEKIFYV]", "Cross-reactivity and fct avidity (native to analogs)*": 0.1}
{"compound": "CC[C@H](C)[C@H](NC(=O)[C@H](CCCCN)NC(=O)[C@H](CCC(=O)O)NC(=O)[C@H](CO)NC(=O)[C@H](CC(C)C)NC(=O)[C@@H](N)CCCCN)C(=O)N[C@@H](Cc1ccccc1)C(=O)N[C@@H](Cc1ccc(O)cc1)C(=O)N[C@H](C(=O)O)C(C)C", "note": "[SSX2 41-49 (A42L)]", "Cross-reactivity and fct avidity (native to analogs)*": 0.03}
{"compound": "CC[C@H](C)[C@H](NC(=O)[C@H](CCCCN)NC(=O)[C@H](CCC(=O)O)NC(=O)[C@H](CO)NC(=O)[C@H](CC(C)C)NC(=O)[C@H](N)CCCCN)C(=O)N[C@@H](Cc1ccccc1)C(=O)N[C@@H](Cc1ccc(O)cc1)C(=O)N[C@H](C(=O)O)C(C)C", "note": "[SSX2 41-49 (K41(D-Lys), A42L)]", "Cross-reactivity and fct avidity (native to analogs)*": 10}
{"compound": "CC[C@H](C)[C@H](NC(=O)[C@H](CCCCN)NC(=O)[C@H](CCC(=O)O)NC(=O)[C@H](CO)NC(=O)[C@@H](NC(=O)[C@H](N)CCCCN)C(C)C)C(=O)N[C@@H](Cc1ccccc1)C(=O)N[C@@H](Cc1ccc(O)cc1)C(=O)N[C@H](C(=O)O)C(C)C", "note": "[SSX2 41-49 (K41(D-Lys), A42V)]", "Cross-reactivity and fct avidity (native to analogs)*": 10}
{"compound": "CC[C@H](C)[C@H](NC(=O)[C@H](CCCCN)NC(=O)[C@H](CCC(=O)O)NC(=O)[C@H](CO)NC(=O)[C@H](C)NC(=O)[C@@H](N)Cc1ccc(F)cc1)C(=O)N[C@@H](Cc1ccccc1)C(=O)N[C@@H](Cc1ccc(O)cc1)C(=O)N[C@H](C(=O)O)C(C)C", "note": "[SSX2 41-49 (K41(Phe-4F))] (H-[Phe(4-F)]ASEKIFYV-OH)", "Cross-reactivity and fct avidity (native to analogs)*": 3}
{"compound": "CC[C@H](C)[C@H](NC(=O)[C@H](CCCCN)NC(=O)[C@H](CCC(=O)O)NC(=O)[C@H](CO)NC(=O)[C@H](CC(C)C)NC(=O)[C@@H](N)Cc1ccccc1)C(=O)N[C@@H](Cc1ccccc1)C(=O)N[C@@H](Cc1ccc(O)cc1)C(=O)N[C@H](C(=O)O)C(C)C", "note": "[SSX2 41-49 (K41F, A42L)]", "Cross-reactivity and fct avidity (native to analogs)*": 0.3}
{"compound": "CC[C@H](C)[C@H](NC(=O)[C@H](CCCCN)NC(=O)[C@H](CCC(=O)O)NC(=O)[C@H](CO)NC(=O)[C@H](CCSC)NC(=O)[C@@H](N)Cc1ccccc1)C(=O)N[C@@H](Cc1ccccc1)C(=O)N[C@@H](Cc1ccc(O)cc1)C(=O)N[C@H](C(=O)O)C(C)C", "note": "[SSX2 41-49 (K41F, A42M)]", "Cross-reactivity and fct avidity (native to analogs)*": 3}
{"compound": "CC[C@H](C)[C@H](NC(=O)[C@H](CCCCN)NC(=O)[C@H](CO)NC(=O)[C@H](CO)NC(=O)[C@@H](NC(=O)[C@@H](N)Cc1ccccc1)C(C)C)C(=O)N[C@@H](Cc1ccccc1)C(=O)N[C@@H](Cc1ccc(O)cc1)C(=O)N[C@H](C(=O)O)C(C)C", "note": "[SSX2 41-49 (K41F, A42V, E44S)]", "Cross-reactivity and fct avidity (native to analogs)*": ">10"}
{"compound": "CC[C@H](C)[C@H](NC(=O)[C@H](CCCCN)NC(=O)[C@@H](NC(=O)[C@H](CO)NC(=O)[C@@H](NC(=O)[C@@H](N)Cc1ccccc1)C(C)C)[C@@H](C)O)C(=O)N[C@@H](Cc1ccccc1)C(=O)N[C@@H](Cc1ccc(O)cc1)C(=O)N[C@H](C(=O)O)C(C)C", "note": "[SSX2 41-49 (K41F, A42V, E44T)]", "Cross-reactivity and fct avidity (native to analogs)*": ">10"}
{"compound": "CC[C@H](C)[C@H](NC(=O)[C@H](CCCCN)NC(=O)[C@H](CCC(=O)O)NC(=O)[C@H](CO)NC(=O)[C@@H](NC(=O)[C@@H](N)Cc1ccccc1)C(C)C)C(=O)N[C@@H](Cc1ccccc1)C(=O)N[C@@H](Cc1ccc(O)cc1)C(=O)N[C@@H](C)C(=O)O", "note": "[SSX2 41-49 (K41F, A42V, V49A)]", "Cross-reactivity and fct avidity (native to analogs)*": 1}
{"compound": "CC[C@H](NC(=O)[C@H](Cc1ccc(O)cc1)NC(=O)[C@H](Cc1ccccc1)NC(=O)[C@@H](NC(=O)[C@H](CCCCN)NC(=O)[C@H](CCC(=O)O)NC(=O)[C@H](CO)NC(=O)[C@@H](NC(=O)[C@@H](N)Cc1ccccc1)C(C)C)[C@@H](C)CC)C(=O)O", "note": "[SSX2 41-49 (K41F, A42V, V49Abu)]", "Cross-reactivity and fct avidity (native to analogs)*": 1}
{"compound": "CC[C@H](C)[C@H](NC(=O)[C@H](CCCCN)NC(=O)[C@H](CCC(=O)O)NC(=O)[C@H](CO)NC(=O)[C@@H](NC(=O)[C@@H](N)Cc1ccccc1)C(C)C)C(=O)N[C@@H](Cc1ccccc1)C(=O)N[C@@H](Cc1ccc(O)cc1)C(=O)N[C@@H](CC(C)C)C(=O)O", "note": "[SSX2 41-49 (K41F, A42V, V49L)]", "Cross-reactivity and fct avidity (native to analogs)*": ">10"}
{"compound": "CC[C@H](C)[C@H](NC(=O)[C@H](CCCCN)NC(=O)[C@H](CCC(=O)O)NC(=O)[C@H](CO)NC(=O)[C@@H](NC(=O)[C@@H](N)Cc1ccccc1)C(C)C)C(=O)N[C@@H](Cc1ccccc1)C(=O)N[C@@H](Cc1ccc(O)cc1)C(=O)N(C)[C@H](C(=O)O)C(C)C", "note": "[SSX2 41-49 (K41F, A42V, V49MeVal)]", "Cross-reactivity and fct avidity (native to analogs)*": 10}
{"compound": "CCCC[C@H](NC(=O)[C@H](Cc1ccc(O)cc1)NC(=O)[C@H](Cc1ccccc1)NC(=O)[C@@H](NC(=O)[C@H](CCCCN)NC(=O)[C@H](CCC(=O)O)NC(=O)[C@H](CO)NC(=O)[C@@H](NC(=O)[C@@H](N)Cc1ccccc1)C(C)C)[C@@H](C)CC)C(=O)O", "note": "[SSX2 41-49 (K41F, A42V, V49Nle)]", "Cross-reactivity and fct avidity (native to analogs)*": ">10"}
{"compound": "CCC[C@H](NC(=O)[C@H](Cc1ccc(O)cc1)NC(=O)[C@H](Cc1ccccc1)NC(=O)[C@@H](NC(=O)[C@H](CCCCN)NC(=O)[C@H](CCC(=O)O)NC(=O)[C@H](CO)NC(=O)[C@@H](NC(=O)[C@@H](N)Cc1ccccc1)C(C)C)[C@@H](C)CC)C(=O)O", "note": "[SSX2 41-49 (K41F, A42V, V49Nva)]", "Cross-reactivity and fct avidity (native to analogs)*": 0.1}
{"compound": "CC[C@H](C)[C@H](NC(=O)[C@H](CCCCN)NC(=O)[C@H](CCC(=O)O)NC(=O)[C@H](CO)NC(=O)[C@H](C)NC(=O)[C@@H](N)Cc1c[nH]c2ccccc12)C(=O)N[C@@H](Cc1ccccc1)C(=O)N[C@@H](Cc1ccc(O)cc1)C(=O)N[C@H](C(=O)O)C(C)C", "note": "[SSX2 41-49 (K41W)]", "Cross-reactivity and fct avidity (native to analogs)*": ">10"}
{"compound": "CC[C@H](C)[C@H](NC(=O)[C@H](CCCCN)NC(=O)[C@H](CCC(=O)O)NC(=O)[C@H](CO)NC(=O)[C@@H](NC(=O)[C@@H](N)Cc1c[nH]c2ccccc12)[C@@H](C)CC)C(=O)N[C@@H](Cc1ccccc1)C(=O)N[C@@H](Cc1ccc(O)cc1)C(=O)N[C@H](C(=O)O)C(C)C", "note": "[SSX2 41-49 (K41W, A42I)]", "Cross-reactivity and fct avidity (native to analogs)*": 0.1}
{"compound": "CC[C@H](C)[C@H](NC(=O)[C@H](CCCCN)NC(=O)[C@H](CCC(=O)O)NC(=O)[C@H](CO)NC(=O)[C@@H](NC(=O)[C@@H](N)Cc1ccc(O)cc1)[C@@H](C)CC)C(=O)N[C@@H](Cc1ccccc1)C(=O)N[C@@H](Cc1ccc(O)cc1)C(=O)N[C@H](C(=O)O)C(C)C", "note": "[SSX2 41-49 (K41Y, A42I)]", "Cross-reactivity and fct avidity (native to analogs)*": 1}
{"compound": "CC[C@H](C)[C@H](NC(=O)[C@H](CCCCN)NC(=O)[C@H](CCC(=O)O)NC(=O)[C@H](CO)NC(=O)[C@H](C)NC(=O)[C@@H](N)CCCCN)C(=O)N[C@@H](Cc1ccccc1)C(=O)N[C@@H](Cc1ccc(O)cc1)C(=O)N[C@H](C(=O)O)C(C)C", "note": "[SSX2 41-49, reference compound]", "Cross-reactivity and fct avidity (native to analogs)*": 1}
{"compound": "FVSEKIFY(Aib) [SSX2 41-49 (K41F, A42V, V49Aib)]", "Cross-reactivity and fct avidity (native to analogs)*": ">10"}
{"compound": "FVSEKLFTA", "Cross-reactivity and fct avidity (native to analogs)*": ">10"}
{"compound": "FVSEKMFYV [SSX2 41-49 (K41F, A42V, I46M)]", "Cross-reactivity and fct avidity (native to analogs)*": ">10"}
{"compound": "FVSEKVFYV (T cell peptide epitope analog) [SSX2 41-49 (K41F, A42V, I46V)]", "Cross-reactivity and fct avidity (native to analogs)*": 1}
{"compound": "FVSNKIFYV [SSX2 41-49 (K41F, A42V, E44N)]", "Cross-reactivity and fct avidity (native to analogs)*": ">10"}
{"compound": "K(D-Ala)SEKIFYV [SSX2 41-49 (A42(D-Ala))]", "Cross-reactivity and fct avidity (native to analogs)*": 10}
{"compound": "K(D-Val)SEKIFYV [SSX2 41-49 (A42(D-Val))]", "Cross-reactivity and fct avidity (native to analogs)*": 3}
{"compound": "KASEKIFYV [SSX2 41-49-NH2]", "Cross-reactivity and fct avidity (native to analogs)*": ">10"}
{"test_system": "T cell lines against a natural (non-mutated) epitope (SSX-241-49)", "test": "Cross-reactivity and functional avidity: IFN-gamma from T cell lines against natural SSX-2 41-49 epitope;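 also: peptide analogs tested ex vivo with competent APCs, IFN-gamma in supernatant measured by ELISA, readouts include minimal triggering concentration, peak effect and concentration at peak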", "format": "cell-based, HHD transgenic mice", "settings": "SSX-2 41-49 analogs, wild-type specific T cells"}
{"compound": "KASEKIFYVY [SSX-241-50, wild-type SSX-2 41-50 decamer peptide, reference compound]", "cross-reactivity / IFN-gamma inducing activity relative to wild-type, in words": "significantly less active; also recorded: no immunological activity"}
